Assay: refractive index (Na D-line) (dimensionless); xn = mol fraction of the nth substance listed
Conditions: 100 kPa, Liquid, Standard Abbe refractometry

OCCO [1,2-ethanediol] + O
refractive index
Conditions | x2 = 0 | x2 = 0.1593 | x2 = 0.2669 | x2 = 0.3496 | x2 = 0.4449 | x2 = 0.5563 | x2 = 0.6518 | x2 = 0.7482 | x2 = 0.8444
288.15 K | 1.432 | 1.4278 | 1.4239 | 1.4202 | 1.4152 | 1.408 | 1.3996 | 1.3881 | 1.3724
293.15 K | 1.4306 | 1.4263 | 1.4225 | 1.4188 | 1.4138 | 1.4067 | 1.3984 | 1.387 | 1.3714
298.15 K | 1.4294 | 1.4251 | 1.4212 | 1.4176 | 1.4126 | 1.4055 | 1.3973 | 1.386 | 1.3705
303.15 K | 1.4282 | 1.4239 | 1.42 | 1.4163 | 1.4114 | 1.4043 | 1.3961 | 1.3849 | 1.3696
308.15 K | 1.4269 | 1.4225 | 1.4187 | 1.415 | 1.4102 | 1.4031 | 1.3949 | 1.3838 | 1.3687
313.15 K | 1.4257 | 1.4213 | 1.4174 | 1.4138 | 1.409 | 1.4019 | 1.3938 | 1.3827 | 1.3677
318.15 K | 1.4244 | 1.42 | 1.4161 | 1.4125 | 1.4077 | 1.4006 | 1.3926 | 1.3816 | 1.3668

OCCCCO [1,4-butanediol] + O
refractive index
Conditions | x2 = 0 | x2 = 0.152 | x2 = 0.2513 | x2 = 0.3534 | x2 = 0.4482 | x2 = 0.5515 | x2 = 0.6527 | x2 = 0.7501 | x2 = 0.8492 | x2 = 0.9488
288.15 K | 1.447 | 1.4441 | 1.4413 | 1.4376 | 1.4332 | 1.4277 | 1.4203 | 1.4097 | 1.3913 | 1.3596
293.15 K | 1.4455 | 1.4425 | 1.4397 | 1.436 | 1.4317 | 1.4262 | 1.4188 | 1.4082 | 1.39 | 1.3586
298.15 K | 1.4441 | 1.4411 | 1.4383 | 1.4346 | 1.4304 | 1.4247 | 1.4174 | 1.4069 | 1.3888 | 1.3577
303.15 K | 1.4426 | 1.4395 | 1.4368 | 1.4331 | 1.4289 | 1.4232 | 1.416 | 1.4056 | 1.3876 | 1.3569
308.15 K | 1.4412 | 1.4381 | 1.4353 | 1.4316 | 1.4274 | 1.4219 | 1.4147 | 1.4044 | 1.3865 | 1.356
313.15 K | 1.4398 | 1.4367 | 1.4339 | 1.4302 | 1.426 | 1.4205 | 1.4134 | 1.4031 | 1.3853 | 1.3552
318.15 K | 1.4384 | 1.4352 | 1.4324 | 1.4288 | 1.4246 | 1.4191 | 1.412 | 1.4018 | 1.3842 | 1.3543

OCCCCCO [1,5-pentanediol] + O
refractive index
Conditions | x2 = 0 | x2 = 0.1235 | x2 = 0.2586 | x2 = 0.3455 | x2 = 0.4864 | x2 = 0.5755 | x2 = 0.6777 | x2 = 0.7611 | x2 = 0.8474 | x2 = 0.9205
288.15 K | 1.4503 | 1.4493 | 1.4477 | 1.4463 | 1.4425 | 1.4401 | 1.4342 | 1.4253 | 1.4085 | 1.3851
293.15 K | 1.449 | 1.4477 | 1.4462 | 1.4447 | 1.4411 | 1.4386 | 1.4328 | 1.4239 | 1.4073 | 1.384
298.15 K | 1.4478 | 1.4464 | 1.4447 | 1.4432 | 1.4396 | 1.4371 | 1.4315 | 1.4225 | 1.406 | 1.3828
303.15 K | 1.4466 | 1.4448 | 1.4431 | 1.4416 | 1.438 | 1.4355 | 1.43 | 1.4211 | 1.4048 | 1.3816
308.15 K | 1.4454 | 1.4434 | 1.4416 | 1.4402 | 1.4367 | 1.4341 | 1.4286 | 1.4197 | 1.4035 | 1.3804
313.15 K | 1.4441 | 1.4419 | 1.44 | 1.4386 | 1.4352 | 1.4326 | 1.4271 | 1.4183 | 1.4022 | 1.3793
318.15 K | 1.443 | 1.4408 | 1.4386 | 1.4373 | 1.434 | 1.4313 | 1.4259 | 1.4171 | 1.401 | 1.3781

OCCCO [propan-1,3-diol] + O
refractive index
Conditions | x2 = 0 | x2 = 0.1737 | x2 = 0.2519 | x2 = 0.3669 | x2 = 0.4553 | x2 = 0.5501 | x2 = 0.6509 | x2 = 0.7532 | x2 = 0.8508
288.15 K | 1.4407 | 1.4361 | 1.4335 | 1.429 | 1.4248 | 1.419 | 1.4107 | 1.3985 | 1.381
293.15 K | 1.4393 | 1.4347 | 1.4321 | 1.4276 | 1.4234 | 1.4177 | 1.4095 | 1.3973 | 1.38
298.15 K | 1.438 | 1.4334 | 1.4308 | 1.4263 | 1.4221 | 1.4165 | 1.4083 | 1.3962 | 1.379
303.15 K | 1.4367 | 1.432 | 1.4295 | 1.425 | 1.4208 | 1.4152 | 1.4071 | 1.3951 | 1.378
308.15 K | 1.4353 | 1.4306 | 1.4281 | 1.4236 | 1.4194 | 1.4139 | 1.4059 | 1.3939 | 1.3771
313.15 K | 1.434 | 1.4294 | 1.4268 | 1.4223 | 1.4181 | 1.4127 | 1.4047 | 1.3929 | 1.3761
318.15 K | 1.4327 | 1.4281 | 1.4255 | 1.421 | 1.4169 | 1.4115 | 1.4036 | 1.3918 | 1.3752

Reference: the NIST ThermoML archive (doi:10.1021/acs.jced.6b00526)
